Experimental data published in the NIST ThermoML archive (doi:10.1016/j.jct.2019.03.035).

Test: refractive index (other wavelength) (dimensionless); xn = mol fraction of the nth substance listed
Details: 288.62 K, 100 kPa, Liquid, Wavelength=632.8 nm, minimum deviation angle technique

N#Cc1ccccc1 [benzonitrile] + CCCCCCCCCC
Details	refractive index
x1 = 0.112	1.4196
x1 = 0.188	1.4249
x1 = 0.34	1.4371
x1 = 0.396	1.4422
x1 = 0.49	1.4514
x1 = 0.608	1.4647
x1 = 0.702	1.4771
x1 = 0.821	1.4952
x1 = 0.912	1.5105
x1 = 1	1.5277
